Test results reported in ChEMBL document CHEMBL1139487, “Discovery of corticotropin releasing factor 2 receptor selective sauvagine analogues for treatment of skeletal muscle atrophy” (J Med Chem, 2005).
pEC50: −log10 of the molar value.

Tests used:
[1] = target: T1, Corticotropin-releasing factor receptor 1 (Mus musculus, UniProt P35347); assay: In vitro effective concentration for mouse corticotropin releasing factor 1 receptor
T1 sequence (P35347 whole entry): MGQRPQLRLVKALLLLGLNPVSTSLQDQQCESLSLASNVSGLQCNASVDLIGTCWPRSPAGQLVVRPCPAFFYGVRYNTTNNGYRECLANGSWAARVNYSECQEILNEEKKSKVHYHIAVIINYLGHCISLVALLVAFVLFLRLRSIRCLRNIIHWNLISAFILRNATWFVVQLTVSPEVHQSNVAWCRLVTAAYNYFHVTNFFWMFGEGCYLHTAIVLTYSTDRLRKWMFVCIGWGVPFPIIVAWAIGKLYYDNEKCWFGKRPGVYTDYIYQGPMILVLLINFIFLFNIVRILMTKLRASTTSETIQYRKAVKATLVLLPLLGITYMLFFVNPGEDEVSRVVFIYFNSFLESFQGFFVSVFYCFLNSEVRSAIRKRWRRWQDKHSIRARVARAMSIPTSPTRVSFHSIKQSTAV

[2] = target: Corticotropin-releasing factor receptor 2 (Mus musculus, UniProt Q60748); assay: In vitro effective concentration for mouse corticotropin releasing factor 2 receptor
Chain of Corticotropin-releasing factor receptor 2 (Q60748 whole entry): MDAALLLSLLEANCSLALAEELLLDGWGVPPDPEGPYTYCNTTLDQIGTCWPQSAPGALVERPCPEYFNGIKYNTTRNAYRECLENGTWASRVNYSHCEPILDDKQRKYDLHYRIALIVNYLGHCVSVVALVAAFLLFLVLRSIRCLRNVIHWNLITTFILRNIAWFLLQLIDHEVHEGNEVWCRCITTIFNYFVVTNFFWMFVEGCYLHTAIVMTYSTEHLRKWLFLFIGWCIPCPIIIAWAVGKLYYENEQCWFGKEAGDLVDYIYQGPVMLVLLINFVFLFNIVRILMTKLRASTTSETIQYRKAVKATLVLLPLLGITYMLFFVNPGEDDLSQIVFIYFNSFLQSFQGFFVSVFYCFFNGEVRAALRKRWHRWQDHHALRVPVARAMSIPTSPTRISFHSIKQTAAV

[3] = target: T2, Corticotropin-releasing factor receptor 1 (Mus musculus) (UniProt P35347); assay: In vitro agonistic activity against mouse corticotropin releasing factor 1 receptor; assay type: functional
T2 sequence (whole entry): T1 sequence (P35347 whole entry)

[4] = target: Corticotropin-releasing factor receptor 2 (Mus musculus) (UniProt Q60748); assay: In vitro agonistic activity against mouse corticotropin releasing factor 2 receptor; assay type: functional
Chain of Corticotropin-releasing factor receptor 2 (Mus musculus) (Q60748 whole entry): as above

Mus musculus = species: Mus musculus; assay: Selectivity ratio of EC50s for mouse corticotropin releasing factor receptors 1 and 2

| SMILES | pEC50 [1] | pEC50 [2] | Emax [3] | Emax [4] | Selectivity (Mus musculus) |
| --- | --- | --- | --- | --- | --- |
| CC[C@H](C)[C@H](NC(=O)[C@@H](NC(=O)[C@H](CC(=O)O)NC(=O)[C@H](CC(C)C)NC(=O)[C@H](CC(C)C)NC(=O)[C@H](CC(C)C)NC(=O)[C@H](CCCN=C(N)N)NC(=O)[C@H](CC(N)=O)NC(=O)[C@H](CC(N)=O)NC(=O)[C@H](C)NC(=O)[C@H](C)NC(=O)[C@H](CCC(N)=O)NC(=O)[C@H](CCC(N)=O)NC(=O)[C@H](CCCCN)NC(=O)[C@H](CCC(=O)O)NC(=O)[C@H](CCCCN)NC(=O)[C@H](CCC(=O)O)NC(=O)[C@H](CCC(N)=O)NC(=O)[C@H](CCCCN)NC(=O)[C@H](CCC(=O)O)NC(=O)[C@@H](NC(=O)[C@H](CCC(=O)O)NC(=O)[C@@H](NC(=O)[C@H](CCSC)NC(=O)[C@H](CCCCN)NC(=O)[C@H](CCCN=C(N)N)NC(=O)[C@H](CC(C)C)NC(=O)[C@H](CC(C)C)NC(=O)[C@H](Cc1ccccc1)NC(=O)[C@H](CCC(N)=O)NC(=O)[C@@H]1CCCN1C(=O)[C@H](CC(C)C)NC(=O)[C@H](CC(=O)O)NC(=O)[C@@H](NC(=O)[C@H](CO)NC(=O)[C@@H](NC(=O)[C@@H]1CCCN1C(=O)[C@@H]1CCCN1C(=O)CNC(=O)[C@@H]1CCC(=O)N1)[C@@H](C)CC)[C@@H](C)CC)[C@@H](C)CC)[C@@H](C)CC)[C@@H](C)O)C(=O)O | 6.63 | 8.07 | 100% | 100% | 28 |
| CC[C@H](C)[C@H](NC(=O)[C@@H](NC(=O)[C@H](CC(=O)O)NC(=O)[C@H](CC(C)C)NC(=O)[C@H](CC(C)C)NC(=O)[C@H](CC(C)C)NC(=O)[C@H](CCCN=C(N)N)NC(=O)[C@H](CC(N)=O)NC(=O)[C@H](CC(N)=O)NC(=O)[C@H](C)NC(=O)[C@H](C)NC(=O)[C@H](CCC(N)=O)NC(=O)[C@H](CCC(N)=O)NC(=O)[C@H](CCCCN)NC(=O)[C@H](CCC(=O)O)NC(=O)[C@H](CCCCN)NC(=O)[C@H](CCC(=O)O)NC(=O)[C@H](CCC(N)=O)NC(=O)[C@H](CCCCN)NC(=O)[C@H](CCC(=O)O)NC(=O)[C@@H](NC(=O)[C@H](CCC(=O)O)NC(=O)[C@@H](NC(=O)[C@H](CCSC)NC(=O)[C@H](CCCCN)NC(=O)[C@H](CCCN=C(N)N)NC(=O)[C@H](CC(C)C)NC(=O)[C@H](CC(C)C)NC(=O)[C@@H](NC(=O)[C@@H](NC(=O)[C@@H]1CCCN1C(=O)[C@H](CC(C)C)NC(=O)[C@H](CC(=O)O)NC(=O)[C@@H](NC(=O)[C@H](CO)NC(=O)[C@@H](NC(=O)[C@@H]1CCCN1C(=O)[C@@H]1CCCN1C(=O)CNC(=O)[C@@H]1CCC(=O)N1)[C@@H](C)CC)[C@@H](C)CC)[C@@H](C)O)[C@@H](C)CC)[C@@H](C)CC)[C@@H](C)CC)[C@@H](C)O)C(=O)O | < 6.00 | 7.72 | 42% | 94% | > 52 |
| CC[C@H](C)[C@H](NC(=O)[C@@H](NC(=O)[C@H](CC(=O)O)NC(=O)[C@H](CC(C)C)NC(=O)[C@H](CC(C)C)NC(=O)[C@H](CC(C)C)NC(=O)[C@H](CCCN=C(N)N)NC(=O)[C@H](CC(N)=O)NC(=O)[C@H](CC(N)=O)NC(=O)[C@H](C)NC(=O)[C@H](C)NC(=O)[C@H](CCC(N)=O)NC(=O)[C@H](CCC(N)=O)NC(=O)[C@H](CCCCN)NC(=O)[C@H](CCC(=O)O)NC(=O)[C@H](CCCCN)NC(=O)[C@H](CCC(=O)O)NC(=O)[C@H](CCC(N)=O)NC(=O)[C@H](CCCCN)NC(=O)[C@H](CCC(=O)O)NC(=O)[C@@H](NC(=O)[C@H](CCC(=O)O)NC(=O)[C@@H](NC(=O)[C@H](CCSC)NC(=O)[C@H](CCCCN)NC(=O)[C@H](CCCN=C(N)N)NC(=O)[C@H](CC(C)C)NC(=O)[C@H](CC(C)C)NC(=O)[C@H](Cc1ccccc1)NC(=O)[C@H](Cc1c[nH]cn1)NC(=O)[C@@H]1CCCN1C(=O)[C@H](CC(C)C)NC(=O)[C@H](CC(=O)O)NC(=O)[C@@H](NC(=O)[C@H](CO)NC(=O)[C@@H](NC(=O)[C@@H]1CCCN1C(=O)[C@@H]1CCCN1C(=O)CNC(=O)[C@@H]1CCC(=O)N1)[C@@H](C)CC)[C@@H](C)CC)[C@@H](C)CC)[C@@H](C)CC)[C@@H](C)O)C(=O)O | 7.09 | 8.11 | 100% | 98% | 10 |
| CC[C@H](C)[C@H](NC(=O)[C@@H](NC(=O)[C@H](CC(=O)O)NC(=O)[C@H](CC(C)C)NC(=O)[C@H](CC(C)C)NC(=O)[C@H](CC(C)C)NC(=O)[C@H](CCCN=C(N)N)NC(=O)[C@H](CC(N)=O)NC(=O)[C@H](CC(N)=O)NC(=O)[C@H](C)NC(=O)[C@H](C)NC(=O)[C@H](CCC(N)=O)NC(=O)[C@H](CCC(N)=O)NC(=O)[C@H](CCCCN)NC(=O)[C@H](CCC(=O)O)NC(=O)[C@H](CCCCN)NC(=O)[C@H](CCC(=O)O)NC(=O)[C@H](CCC(N)=O)NC(=O)[C@H](CCCCN)NC(=O)[C@H](CCC(=O)O)NC(=O)[C@@H](NC(=O)[C@H](CCC(=O)O)NC(=O)[C@@H](NC(=O)[C@H](CCSC)NC(=O)[C@H](CCCCN)NC(=O)[C@H](CCCN=C(N)N)NC(=O)[C@H](CC(C)C)NC(=O)[C@H](CC(C)C)NC(=O)[C@H](Cc1c[nH]c2ccccc12)NC(=O)[C@H](CC(C)C)NC(=O)[C@@H]1CCCN1C(=O)[C@H](CC(C)C)NC(=O)[C@H](CC(=O)O)NC(=O)[C@@H](NC(=O)[C@H](CO)NC(=O)[C@@H](NC(=O)[C@@H]1CCCN1C(=O)[C@@H]1CCCN1C(=O)CNC(=O)[C@@H]1CCC(=O)N1)[C@@H](C)CC)[C@@H](C)CC)[C@@H](C)CC)[C@@H](C)CC)[C@@H](C)O)C(=O)O | 7.01 | 8.32 | 100% | 96% | 20 |
| CC[C@H](C)[C@H](NC(=O)[C@@H](NC(=O)[C@H](CC(=O)O)NC(=O)[C@H](CC(C)C)NC(=O)[C@H](CC(C)C)NC(=O)[C@H](CC(C)C)NC(=O)[C@H](CCCN=C(N)N)NC(=O)[C@H](CC(N)=O)NC(=O)[C@H](CC(N)=O)NC(=O)[C@H](C)NC(=O)[C@H](C)NC(=O)[C@H](CCC(N)=O)NC(=O)[C@H](CCC(N)=O)NC(=O)[C@H](CCCCN)NC(=O)[C@H](CCC(=O)O)NC(=O)[C@H](CCCCN)NC(=O)[C@H](CCC(=O)O)NC(=O)[C@H](CCC(N)=O)NC(=O)[C@H](CCCCN)NC(=O)[C@H](CCC(=O)O)NC(=O)[C@@H](NC(=O)[C@H](CCC(=O)O)NC(=O)[C@@H](NC(=O)[C@H](CCSC)NC(=O)[C@H](CCCCN)NC(=O)[C@H](CCCN=C(N)N)NC(=O)[C@H](CC(C)C)NC(=O)[C@H](CC(C)C)NC(=O)[C@H](Cc1c[nH]c2ccccc12)NC(=O)[C@@H](NC(=O)[C@@H]1CCCN1C(=O)[C@H](CC(C)C)NC(=O)[C@H](CC(=O)O)NC(=O)[C@@H](NC(=O)[C@H](CO)NC(=O)[C@@H](NC(=O)[C@@H]1CCCN1C(=O)[C@@H]1CCCN1C(=O)CNC(=O)[C@@H]1CCC(=O)N1)[C@@H](C)CC)[C@@H](C)CC)[C@@H](C)CC)[C@@H](C)CC)[C@@H](C)CC)[C@@H](C)O)C(=O)O | 6.25 | 7.63 | 99% | 94% | 24 |
| CC[C@H](C)[C@H](NC(=O)[C@@H](NC(=O)[C@H](CC(=O)O)NC(=O)[C@H](CC(C)C)NC(=O)[C@H](CC(C)C)NC(=O)[C@H](CC(C)C)NC(=O)[C@H](CCCN=C(N)N)NC(=O)[C@H](CC(N)=O)NC(=O)[C@H](CC(N)=O)NC(=O)[C@H](C)NC(=O)[C@H](C)NC(=O)[C@H](CCC(N)=O)NC(=O)[C@H](CCC(N)=O)NC(=O)[C@H](CCCCN)NC(=O)[C@H](CCC(=O)O)NC(=O)[C@H](CCCCN)NC(=O)[C@H](CCC(=O)O)NC(=O)[C@H](CCC(N)=O)NC(=O)[C@H](CCCCN)NC(=O)[C@H](CCC(=O)O)NC(=O)[C@@H](NC(=O)[C@H](CCC(=O)O)NC(=O)[C@@H](NC(=O)[C@H](CCSC)NC(=O)[C@H](CCCCN)NC(=O)[C@H](CCCN=C(N)N)NC(=O)[C@H](CC(C)C)NC(=O)[C@H](CC(C)C)NC(=O)[C@H](Cc1ccccc1)NC(=O)[C@H](CC(C)C)NC(=O)[C@@H]1CCCN1C(=O)[C@H](CC(C)C)NC(=O)[C@H](CC(=O)O)NC(=O)[C@@H](NC(=O)[C@H](CO)NC(=O)[C@@H](NC(=O)[C@@H]1CCCN1C(=O)[C@@H]1CCCN1C(=O)CNC(=O)[C@@H]1CCC(=O)N1)[C@@H](C)CC)[C@@H](C)CC)[C@@H](C)CC)[C@@H](C)CC)[C@@H](C)O)C(=O)O | 6.99 | 8.00 | 93% | 88% | 10 |
| CC[C@H](C)[C@H](NC(=O)[C@@H](NC(=O)[C@H](CC(=O)O)NC(=O)[C@H](CC(C)C)NC(=O)[C@H](CC(C)C)NC(=O)[C@H](CC(C)C)NC(=O)[C@H](CCCN=C(N)N)NC(=O)[C@H](CC(N)=O)NC(=O)[C@H](CC(N)=O)NC(=O)[C@H](C)NC(=O)[C@H](C)NC(=O)[C@H](CCC(N)=O)NC(=O)[C@H](CCC(N)=O)NC(=O)[C@H](CCCCN)NC(=O)[C@H](CCC(=O)O)NC(=O)[C@H](CCCCN)NC(=O)[C@H](CCC(=O)O)NC(=O)[C@H](CCC(N)=O)NC(=O)[C@H](CCCCN)NC(=O)[C@H](CCC(=O)O)NC(=O)[C@@H](NC(=O)[C@H](CCC(=O)O)NC(=O)[C@@H](NC(=O)[C@H](CCSC)NC(=O)[C@H](CCCCN)NC(=O)[C@H](CCCN=C(N)N)NC(=O)[C@H](CC(C)C)NC(=O)[C@H](CC(C)C)NC(=O)[C@@H](NC(=O)[C@H](Cc1ccc(O)cc1)NC(=O)[C@@H]1CCCN1C(=O)[C@H](CC(C)C)NC(=O)[C@H](CC(=O)O)NC(=O)[C@@H](NC(=O)[C@H](CO)NC(=O)[C@@H](NC(=O)[C@@H]1CCCN1C(=O)[C@@H]1CCCN1C(=O)CNC(=O)[C@@H]1CCC(=O)N1)[C@@H](C)CC)[C@@H](C)CC)[C@@H](C)O)[C@@H](C)CC)[C@@H](C)CC)[C@@H](C)O)C(=O)O | 6.72 | 8.06 | 99% | 100% | 21 |
